Inhibition in vivo data for 1 compound are collected here from ChEMBL document CHEMBL1134889, “Clarification of mechanism of human sputum elastase inhibition by a new inhibitor, ONO-5046, using electrospray ionization mass spectrometry” (Bioorg Med Chem Lett, 2002).

Each structure is given as a SMILES string.

For assay [1], the system named is Cavia porcellus. The assay is described as follows: Percent inhibition effect of ONO-5046 on the increase of skin capillary permeability induced by HNE in guinea pigs in vivo on administration of 10 mg/Kg dose iv in guinea pig. The assay is classed as functional.
For assay [2], the system named is Cavia porcellus. Kind of assay: Percent inhibition effect of ONO-5046 on the increase of skin capillary permeability induced by HNE in guinea pigs in vivo on administration of 3 mg/Kg dose iv in guinea pig. Format: functional.

As for `CC(C)(C)C(=O)Oc1ccc(S(=O)(=O)Nc2ccccc2C(=O)NCC(=O)O)cc1`, in the assay on Cavia porcellus [1], the inhibition in vivo (in general, the relative decrease from the control value, in per cent) at 10 mg/kg is 51.8%. In addition, the inhibition in vivo at 3 mg/kg in the assay with Cavia porcellus [2] came out at 31.7%.
